From patent US9622970B2, “Pharmaceutical composition containing lutein and antioxidant for treating and preventing human disease” (priority 2014, dated 2017)

Test: Plasma lutein concentration in chickens fed lutein or preparation of lutein (HPLC)
Type: in vivo, chicken
Settings: diet with 15 mg lutein/kg for 15 days
Method: Chickens (50), weighing 1.0±0.2 kg, were randomly divided into two treatments, with 25 chickens each. Chickens were individually housed in cages measuring 0.2×0.2 m, and were submitted to a lighting program of 16 h light/day. Chickens were kept under a temperature of 20±5° C. Feed and water were supplied ad libitum.
After two weeks of washout period, when the chickens were fed lutein or preparation of lutein with basal diet, two groups were fed the basal diets lutein or preparation of lutein for a period of 15 days. Lutein contents were determined using a HPLC method. The basal diet contained 0.5 mg lutein/kg. The two diets were formulated to contain the same level of 15 mg lutein/kg. All feeds were prepared every day.
Morning blood samples were taken on day 0, and days 3, 6, 12 for lutein analysis. The number of eggs laid by each chicken was counted during the experiment. Blood samples were obtained by puncture of the vena ulnaris. One milliliter of blood was sampled from each chicken. The plasma was separated by centrifugation. Plasma lutein concentrations have been detected. […]
A single gradient-type HPLC system was used for the parallel analysis of plasma concentration of lutein. The HPLC systems consisted of two solvent-delivery systems detected with a 436-nm and a 280-nm filter. The samples were analyzed by HPLC method. Lutein was quantified by determining the peak area at 445 nm. […]

Plasma lutein concentration: 1.20 ± 0.10 μg lutein/ml
Compound: CC1=C[C@H](O)CC(C)(C)[C@H]1/C=C/C(C)=C/C=C/C(C)=C/C=C/C=C(C)/C=C/C=C(C)/C=C/C1=C(C)C[C@@H](O)CC1(C)C [Lutein, lutein]
